Measured values taken from ChEMBL document CHEMBL5291721, “A preclinical secondary pharmacology resource illuminates target-adverse drug reaction associations of marketed drugs” (Nat Commun, 2023).

Legend:
[1] = target: T1, Muscarinic acetylcholine receptor M2 (Homo sapiens, UniProt P08172)
T1 sequence (P08172 whole entry): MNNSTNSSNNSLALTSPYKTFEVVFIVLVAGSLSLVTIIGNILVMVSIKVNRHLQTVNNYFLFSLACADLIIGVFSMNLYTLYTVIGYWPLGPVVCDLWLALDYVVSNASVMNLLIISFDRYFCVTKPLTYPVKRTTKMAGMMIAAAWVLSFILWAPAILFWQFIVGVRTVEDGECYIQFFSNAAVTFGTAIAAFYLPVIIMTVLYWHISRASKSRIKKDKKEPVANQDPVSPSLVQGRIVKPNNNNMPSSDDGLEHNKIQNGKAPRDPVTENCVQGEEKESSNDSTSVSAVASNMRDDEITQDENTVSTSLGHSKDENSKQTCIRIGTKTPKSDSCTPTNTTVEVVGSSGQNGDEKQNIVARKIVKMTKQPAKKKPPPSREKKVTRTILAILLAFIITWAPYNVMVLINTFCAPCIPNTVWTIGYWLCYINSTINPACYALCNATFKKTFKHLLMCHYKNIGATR

[2] = target: T2, Amine oxidase [flavin-containing] A (Homo sapiens, UniProt P21397); type: functional
T2 sequence (P21397 whole entry): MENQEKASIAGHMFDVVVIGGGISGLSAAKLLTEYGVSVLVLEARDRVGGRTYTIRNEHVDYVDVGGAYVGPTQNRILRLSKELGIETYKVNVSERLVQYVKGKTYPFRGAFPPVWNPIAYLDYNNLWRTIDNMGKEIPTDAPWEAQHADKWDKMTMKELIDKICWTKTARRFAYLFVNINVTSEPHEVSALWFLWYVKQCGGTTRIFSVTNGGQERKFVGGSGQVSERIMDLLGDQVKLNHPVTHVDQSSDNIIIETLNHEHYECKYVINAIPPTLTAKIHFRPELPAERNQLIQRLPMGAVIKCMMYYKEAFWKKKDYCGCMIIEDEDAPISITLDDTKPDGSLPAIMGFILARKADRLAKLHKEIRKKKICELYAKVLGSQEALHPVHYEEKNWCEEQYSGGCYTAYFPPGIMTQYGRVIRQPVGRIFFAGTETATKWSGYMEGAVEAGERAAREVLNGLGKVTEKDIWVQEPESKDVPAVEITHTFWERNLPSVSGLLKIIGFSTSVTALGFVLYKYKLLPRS

[3] = target: T3, Alpha-2A adrenergic receptor (Homo sapiens, UniProt P08913)
T3 sequence (P08913 whole entry): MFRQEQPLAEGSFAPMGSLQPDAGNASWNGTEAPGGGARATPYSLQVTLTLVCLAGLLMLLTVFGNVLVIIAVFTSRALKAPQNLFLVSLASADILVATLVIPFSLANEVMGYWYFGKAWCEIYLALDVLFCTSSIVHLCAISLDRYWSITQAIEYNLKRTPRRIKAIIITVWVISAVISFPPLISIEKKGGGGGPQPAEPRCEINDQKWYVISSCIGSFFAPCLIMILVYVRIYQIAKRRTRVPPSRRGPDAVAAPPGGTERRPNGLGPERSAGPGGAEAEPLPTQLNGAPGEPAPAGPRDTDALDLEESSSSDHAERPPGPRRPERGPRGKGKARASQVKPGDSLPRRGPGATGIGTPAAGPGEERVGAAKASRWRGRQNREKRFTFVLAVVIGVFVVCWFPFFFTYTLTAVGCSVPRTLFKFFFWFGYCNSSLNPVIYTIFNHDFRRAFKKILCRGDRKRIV

[4] = target: T4, 5-hydroxytryptamine receptor 1A (Homo sapiens, UniProt P08908)
T4 sequence (P08908 whole entry): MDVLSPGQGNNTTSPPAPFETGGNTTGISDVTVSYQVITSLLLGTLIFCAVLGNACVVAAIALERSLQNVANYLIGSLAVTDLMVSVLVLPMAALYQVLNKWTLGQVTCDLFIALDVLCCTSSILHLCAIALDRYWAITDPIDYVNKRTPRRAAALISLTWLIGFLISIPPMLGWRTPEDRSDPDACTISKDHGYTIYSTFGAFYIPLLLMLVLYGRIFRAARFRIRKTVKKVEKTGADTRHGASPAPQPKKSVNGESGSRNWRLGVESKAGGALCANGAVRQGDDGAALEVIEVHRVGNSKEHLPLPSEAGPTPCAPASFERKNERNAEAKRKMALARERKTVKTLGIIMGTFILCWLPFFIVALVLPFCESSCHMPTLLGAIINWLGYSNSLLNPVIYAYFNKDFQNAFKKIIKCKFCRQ

[5] = target: 3',5'-cyclic-AMP phosphodiesterase 4A (Homo sapiens, UniProt P27815); type: functional
Sequence of 3',5'-cyclic-AMP phosphodiesterase 4A (P27815 whole entry): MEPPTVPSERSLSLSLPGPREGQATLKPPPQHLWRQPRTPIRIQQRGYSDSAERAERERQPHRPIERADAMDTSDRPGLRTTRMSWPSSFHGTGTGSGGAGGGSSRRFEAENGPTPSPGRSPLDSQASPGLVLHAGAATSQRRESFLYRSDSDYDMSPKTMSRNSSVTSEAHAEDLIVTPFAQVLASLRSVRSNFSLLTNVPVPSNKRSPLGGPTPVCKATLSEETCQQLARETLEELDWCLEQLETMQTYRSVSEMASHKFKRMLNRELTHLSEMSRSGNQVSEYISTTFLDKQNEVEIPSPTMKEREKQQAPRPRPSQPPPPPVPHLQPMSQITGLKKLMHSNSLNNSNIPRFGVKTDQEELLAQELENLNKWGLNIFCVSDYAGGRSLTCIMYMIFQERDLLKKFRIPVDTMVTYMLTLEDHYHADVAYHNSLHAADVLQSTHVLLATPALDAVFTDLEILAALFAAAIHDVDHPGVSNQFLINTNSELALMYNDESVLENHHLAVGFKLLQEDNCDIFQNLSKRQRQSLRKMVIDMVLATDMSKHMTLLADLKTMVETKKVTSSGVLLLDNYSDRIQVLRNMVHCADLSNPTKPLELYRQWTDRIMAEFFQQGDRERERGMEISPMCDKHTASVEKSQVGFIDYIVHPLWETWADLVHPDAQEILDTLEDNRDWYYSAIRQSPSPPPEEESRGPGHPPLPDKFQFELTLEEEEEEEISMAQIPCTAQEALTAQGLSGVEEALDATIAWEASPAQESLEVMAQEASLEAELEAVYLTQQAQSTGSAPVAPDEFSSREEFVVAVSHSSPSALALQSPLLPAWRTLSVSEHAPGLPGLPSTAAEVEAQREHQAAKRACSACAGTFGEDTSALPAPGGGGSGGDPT

[6] = target: T5, Alpha-1A adrenergic receptor (Homo sapiens, UniProt P35348); type: functional, cell-based
T5 sequence (P35348 whole entry): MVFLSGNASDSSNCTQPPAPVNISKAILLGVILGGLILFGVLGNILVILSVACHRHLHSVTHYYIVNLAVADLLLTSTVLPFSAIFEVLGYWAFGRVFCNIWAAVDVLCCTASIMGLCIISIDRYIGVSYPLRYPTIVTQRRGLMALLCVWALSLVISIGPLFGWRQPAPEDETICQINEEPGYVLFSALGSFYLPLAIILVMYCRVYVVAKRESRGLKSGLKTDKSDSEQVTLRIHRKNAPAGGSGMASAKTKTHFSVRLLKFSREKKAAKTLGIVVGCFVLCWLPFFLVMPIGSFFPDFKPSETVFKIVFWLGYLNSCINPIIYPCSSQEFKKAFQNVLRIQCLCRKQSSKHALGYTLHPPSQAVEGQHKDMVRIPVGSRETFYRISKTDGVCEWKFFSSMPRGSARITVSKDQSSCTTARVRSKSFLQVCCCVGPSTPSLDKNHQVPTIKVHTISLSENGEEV

[7] = target: 5-hydroxytryptamine receptor 2B (Homo sapiens, UniProt P41595); type: functional, cell-based
Sequence of 5-hydroxytryptamine receptor 2B (P41595 whole entry): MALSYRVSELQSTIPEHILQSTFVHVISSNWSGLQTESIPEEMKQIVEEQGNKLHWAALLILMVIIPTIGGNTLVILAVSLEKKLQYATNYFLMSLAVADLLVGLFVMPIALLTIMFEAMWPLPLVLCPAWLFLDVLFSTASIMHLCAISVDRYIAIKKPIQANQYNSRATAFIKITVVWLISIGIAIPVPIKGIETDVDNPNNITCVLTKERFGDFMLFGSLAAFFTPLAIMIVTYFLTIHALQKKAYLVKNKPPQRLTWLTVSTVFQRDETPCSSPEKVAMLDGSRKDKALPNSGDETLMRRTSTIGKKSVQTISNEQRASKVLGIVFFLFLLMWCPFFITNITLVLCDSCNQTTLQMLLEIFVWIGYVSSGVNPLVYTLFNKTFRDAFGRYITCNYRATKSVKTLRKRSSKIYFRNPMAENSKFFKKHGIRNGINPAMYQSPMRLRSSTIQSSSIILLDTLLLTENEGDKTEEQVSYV

[8] = target: T6, Thromboxane A2 receptor (Homo sapiens, UniProt P21731); type: functional, cell-based
T6 sequence (P21731 whole entry): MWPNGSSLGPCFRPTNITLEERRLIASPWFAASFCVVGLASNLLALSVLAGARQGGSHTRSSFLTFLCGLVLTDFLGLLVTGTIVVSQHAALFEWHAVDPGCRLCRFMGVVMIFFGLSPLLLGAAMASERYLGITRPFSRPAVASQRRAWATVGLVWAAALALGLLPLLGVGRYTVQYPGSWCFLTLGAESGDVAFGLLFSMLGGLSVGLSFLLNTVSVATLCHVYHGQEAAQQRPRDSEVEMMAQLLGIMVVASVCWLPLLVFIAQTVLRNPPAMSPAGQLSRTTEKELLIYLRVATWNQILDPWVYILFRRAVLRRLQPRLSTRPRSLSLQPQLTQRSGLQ

[9] = target: Voltage-gated inwardly rectifying potassium channel KCNH2 (Homo sapiens, UniProt Q12809); type: functional
Sequence of Voltage-gated inwardly rectifying potassium channel KCNH2 (Q12809 whole entry): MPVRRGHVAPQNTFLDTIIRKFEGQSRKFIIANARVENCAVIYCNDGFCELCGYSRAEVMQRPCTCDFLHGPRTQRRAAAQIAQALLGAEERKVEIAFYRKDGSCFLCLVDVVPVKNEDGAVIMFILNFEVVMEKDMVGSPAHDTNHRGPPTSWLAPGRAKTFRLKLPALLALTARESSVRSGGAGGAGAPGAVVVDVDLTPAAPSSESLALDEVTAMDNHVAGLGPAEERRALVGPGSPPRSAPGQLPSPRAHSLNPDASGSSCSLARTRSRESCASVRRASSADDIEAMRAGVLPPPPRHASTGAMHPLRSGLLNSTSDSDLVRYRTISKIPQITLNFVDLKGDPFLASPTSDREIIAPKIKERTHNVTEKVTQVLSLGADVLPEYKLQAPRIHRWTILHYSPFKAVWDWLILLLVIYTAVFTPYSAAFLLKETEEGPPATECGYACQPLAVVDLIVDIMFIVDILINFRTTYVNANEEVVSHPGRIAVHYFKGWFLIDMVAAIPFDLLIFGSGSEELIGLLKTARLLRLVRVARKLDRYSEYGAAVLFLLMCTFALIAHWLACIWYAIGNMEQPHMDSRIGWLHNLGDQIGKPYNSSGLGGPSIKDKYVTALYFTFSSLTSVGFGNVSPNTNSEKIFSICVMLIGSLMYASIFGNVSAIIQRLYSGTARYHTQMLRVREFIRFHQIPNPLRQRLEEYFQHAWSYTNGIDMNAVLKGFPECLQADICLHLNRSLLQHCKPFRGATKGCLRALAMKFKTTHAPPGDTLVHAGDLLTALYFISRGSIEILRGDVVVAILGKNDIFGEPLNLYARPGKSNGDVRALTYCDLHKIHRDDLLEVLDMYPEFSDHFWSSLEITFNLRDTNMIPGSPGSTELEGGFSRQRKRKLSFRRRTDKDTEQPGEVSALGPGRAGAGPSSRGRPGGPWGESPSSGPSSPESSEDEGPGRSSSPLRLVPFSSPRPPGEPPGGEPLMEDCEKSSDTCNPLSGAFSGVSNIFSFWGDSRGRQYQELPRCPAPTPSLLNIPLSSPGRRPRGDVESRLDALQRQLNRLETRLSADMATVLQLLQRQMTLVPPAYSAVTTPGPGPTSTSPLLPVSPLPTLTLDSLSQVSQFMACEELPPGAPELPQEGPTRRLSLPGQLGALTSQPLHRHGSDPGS
Also: assay procedure not described here.

| Compound | AC50 [1] [nM] | AC50 [2] [µM] | AC50 [3] [nM] | AC50 [4] [µM] | AC50 [5] [µM] | AC50 [6] [µM] | AC50 [7] [µM] | AC50 [8] [nM] | AC50 ([9]; read-out: AC50) [nM] | AC50 ([9]; human, cellular components) [nM] |
| --- | --- | --- | --- | --- | --- | --- | --- | --- | --- | --- |
| CN(C)c1ccc(C(=C2C=CC(=[N+](C)C)C=C2)c2ccc(N(C)C)cc2)cc1 [GENTIAN VIOLET] | 478 | > 30 | 1430 | 4.24 | 13.2 | > 30 | > 30 | 2030 | 1000 | – |
| Nc1ccc(S(N)(=O)=O)cc1 [SULFANILAMIDE] | > 30000 | > 30 | > 30000 | > 30 | > 30 | > 30 | > 30 | > 30000 | – | – |
| HYDROXOCOBALAMIN | – | – | – | – | – | – | – | – | – | > 30000 |
